# Source: paper PMC10206040, “Identification of novel anti-amoebic pharmacophores from kinase inhibitor chemotypes” (Frontiers in Microbiology, 2023)
# Read-outs that look alike come from different tables or passages of the source.
# Columns and labels:
# [1] = tested on: Acanthamoeba castellanii T4 isolate (ATCC 50370) trophozoites; assay: CellTiter-Glo 2.0 trophocidal assay, A. castellanii; type: cell-based; conditions: read-out: Acanthamoeba castellanii EC50 ± SD
# Text: This isolate was purchased from American Type Culture Collection (ATCC). […] For sub-culturing, cells were mechanically harvested to detach the cells from the culture flasks.
# [2] = tested on: Balamuthia mandrillaris (CDC:V039; ATCC 50209) trophozoites; assay: CellTiter-Glo 2.0 trophocidal assay, B. mandrillaris; type: cell-based; conditions: Balamuthia mandrillaris, ATCC50209, 72 h, read-out: Balamuthia mandrillaris EC50 ± SD
# Text: For sub-culturing, 0.25% Trypsin–EDTA (Gibco) cell detachment reagent was used to detach the cells from the culture flasks.
# [3] = Human fetal lung fibroblast (MRC5) cell cytotoxicity assay (resazurin); conditions: human
# Description: (§1) Intermediate plates were made as described, adding 95 μL of DMEM complete media to 5 μL of compound per well setting a 5% DMSO amount. Log-phase MRC5 cells were removed from a T-75 TC flask using TrypLE® Express (Thermo®) and dispersed by gentle pipetting. Cell density was adjusted to working concentration in prewarmed DMEM medium: 25,000 cells in 90 μL of culture were plated in 96-well transparent Nunclon plates and allowed to settle for 24 h at 37°C and 5% CO2. […] Plates were incubated for 48 h at 37°C and 5% CO2. At 4 h prior to fluorescence measurement, 20 μL of 500 μM resazurin solution was added.
# (§2) A four-parameter equation was used to fit the dose–response curves and determination of EC50 by SigmaPlot ® 13.0 software. Assays were performed in duplicate at least twice for positive compounds, to achieve a minimal […] per dose response.
# [4] = tested on: Naegleria fowleri (ATCC 30215) trophozoites; assay: microbe, parasite or virus in culture
# Description: Trophozoites were routinely grown axenically at 34°C, 5% CO2, in Nelson’s complete medium (NCM) in non-vented 75 cm^2 tissue culture flasks (Olympus), until the cells were 80–90% confluent. For sub-culturing, cells were placed on ice to detach the cells from the culture flasks. […] Complete NCM media is prepared by the addition of 10% fetal bovine serum (FBS) and 100 U/mL penicillin, and 100 μg/mL streptomycin antibiotics.
# Trophozoites were routinely cultured as described above and only logarithmic trophozoites were used.
# All assays were incubated at each of the parasites’ representative growth temperatures, described above, for 72 h. At the 72-h time point, 25 μL of CellTiter-Glo 2.0 reagent was added to all wells of the 96-well plates by hand. The plates were protected from light and contents were mixed using an orbital shaker at 300 rpm at room temperature for 2 min to induce cell lysis. After shaking, the plates were equilibrated at room temperature for 10 min to stabilize the luminescent signal. The ATP luminescent signal (relative light units; RLUs) were measured […] with a SpectraMax I3X plate reader (Molecular Devices, Sunnyvale, CA, United States). […] Values reported are from a minimum of three biological replicates with standard deviation.
# [5] = tested on: MRC5 cells; assay: Human fetal lung fibroblast (MRC5) cell cytotoxicity assay (resazurin); conditions: Table S2
# Description: as §1, §2
# [6] = tested on: L6 cells; assay: Rat skeletal muscle cell line (L6) cytotoxicity assay (resazurin); conditions: Table S2; in µM
# Description: One hundred microliters (100 μL) per well of culture medium containing the compounds and controls were added to L6 cells previously cultured (4 × 10^3 L6 cells per well). After 72 h at 37°C the medium was exchanged, and the viable cell number was determined by resazurin (Sigma–Aldrich) reduction. 20 μl of resazurin (1.1 mg/ml) was added to each well and incubated in the dark for 2 h at 37°C.
# [7] = tested on: THP-1; assay: Cytotoxicity assay in THP-1 (MTT); type: cell-based; conditions: Table S2, 72 h, maximal concentration 50 μM
# Description: Cytotoxicity assay in TH P-1. Cellular toxicity of all compounds was determined using the colorimetric MTT-based assay after incubation at 37 °C for 72 h in the presence of increasing concentrations of compounds (final maximal concentration was 50 μM in 0.5% DMSO per well) [ 1] . The results are expressed […]
# cells. Assays were performed in duplicate at least twice to achieve a minimal n=3 per dose response. […]
# Cytotoxicity assay in THP-1. Cellular toxicity of all compounds was determined using the colorimetric MTT-based assay after incubation at 37 °C for 72 h in the presence of increasing concentrations of compounds (final maximal concentration was 50 μM in 0.5% DMSO per well). […] Assays were performed in duplicate at least twice to achieve a minimal n=3 per dose response.
# [8] = Acanthamoeba castellanii, ATCC50370, 72 h
# [9] = MRC5 cells (human fetal lung fibroblasts)
# [10] = Naegleria fowleri, 72 h, read-out: Naegleria fowleri EC50 ± SD, logarithmic trophozoites, 72 h, n = 3 (converted)
# [11] = read-out: Naegleria fowleri EC50 ± SD, logarithmic trophozoites, 72 h, n = 3
# [12] = Naegleria fowleri, ATCC30215, 72 h, read-out: Naegleria fowleri EC50 ± SD, logarithmic trophozoites, 72 h, n = 3 (converted)
# [13] = Acanthamoeba castellanii, ATCC50370, 72 h, logarithmic trophozoites, 72 h, n = 3
# [14] = logarithmic trophozoites, 72 h, n = 3
Structure (SMILES),EC50 [2],"CC50 at 48 h [3, 9]","EC50 [4, 10]","EC50 [4, 12]",further results
c1ccc(Nc2nccc(-c3cnn4ccccc34)n2)cc1 [Compound 2a],4.2 ± 0.6 µM,> 50 µM,0.94 ± 0.17 µM,,"EC50 [1, 8]: 13 ± 6.9 µM"
N#Cc1cccc(Nc2nccc(-c3c(C4CC4)nn4nc(N5CCOCC5)ccc34)n2)c1 [Compound 2c],,> 50 µM,3.5 ± 0.7 µM,,"EC50 [1, 8]: 5.9 ± 0.17 µM"
Cc1cc(-c2cnn3ncccc23)nc(Nc2cccc(C#N)c2)n1 [Compound 2e],,> 50 µM,,,"EC50 [1, 8]: > 20 µM"
N#Cc1cccc(Nc2cccc(-c3cnn4ncccc34)n2)c1 [Compound 2f],> 20 µM,> 50 µM,,,"EC50 [1, 8]: > 20 µM"
N#Cc1cccc(Nc2cccc(-c3cnn4ncccc34)c2)c1 [Compound 2g],> 20 µM,19 ± 1 µM,,,"EC50 [1, 8]: > 20 µM"
COc1cccc(Nc2nccc(-c3cnn4ccccc34)n2)c1 [Compound 2h],3.3 ± 0.97 µM,> 50 µM,,,
COc1ccc(-c2nn3ncccc3c2-c2ccnc(Nc3ccccc3)n2)cc1 [Compound 2i],,> 50 µM,17 ± 3.5 µM,,
COc1cccc(Nc2nccc(-c3cnn4nc(N5CCOCC5)ccc34)n2)c1 [Compound 2j],4.9 ± 1.6 µM,> 50 µM,,,
OC1CCC(Nc2nccc(-c3cnn4nc(N5CCOCC5)ccc34)n2)CC1 (stereo not shown) [Compound 2k],> 20 µM,> 50 µM,≤ 14 µM,,"EC50 [4, 11]: 7.5 ± 2.5 µM"
COCc1nn2ncccc2c1-c1ccnc(Nc2cccc(C#N)c2)n1 [Compound 2l],,> 50 µM,,,"EC50 [4, 11]: ≤ 14 µM; EC50 ([4]; read-out: Naegleria fowleri EC50 ± SD, logarithmic trophozoites, 72 h, n = 3, listed as 2 l): 1.1 ± 0.16 µM"
CC(O)c1nn2ncccc2c1-c1ccnc(Nc2cccc(C#N)c2)n1 (stereo not shown) [Compound 2m],,> 50 µM,17 ± 0.76 µM,,
CC(C)c1nn2ncccc2c1-c1ccnc(Nc2cccc(C#N)c2)n1 [Compound 2n],,33 ± 2 µM,1.3 ± 0.33 µM,,
N#Cc1cccc(Nc2nccc(-c3c(C4CC4)nn4ncccc34)n2)c1 [Compound 2o],,> 50 µM,9.6 ± 6.6 µM,,
c1cnn2ncc(-c3ccnc(NC4CCCCC4)n3)c2c1 [Compound 2p],7.5 ± 3.1 µM,> 50 µM,1.4 ± 0.76 µM,,
Fc1ccc(Nc2nccc(-c3c(C4CC4)nn4ncccc34)n2)cc1F [Compound 2q],,,,12 ± 7.8 µM,MRC5 TC50 ± Standard Deviation ([5]; in µM): > 50; CC50 at 48 h [3]: > 50 µM
c1cncc(Nc2nccc(-c3c(C4CC4)nn4ncccc34)n2)c1 [Compound 2r],13 ± 7.5 µM,> 50 µM,16 ± 3.7 µM,,

Structure (SMILES),EC50 [2],"CC50 at 48 h [3, 9]","EC50 [4, 10]","EC50 [4, 12]",further results
COc1ccc2c(-c3ccnc(NC4CCC(O)CC4)n3)cnn2n1 (stereo not shown) [Compound 2s],11 ± 4.2 µM,> 50 µM,,,
c1ccc(Nc2nccc(-c3cnn4ncccc34)n2)nc1 [Compound 2t],10 ± 2.8 µM,> 50 µM,,,
COc1ccc2c(-c3ccnc(NC4CCC(O)CC4)n3)c(C3CC3)nn2n1 (stereo not shown) [Compound 2u],9.4 ± 3.4 µM,> 50 µM,,,
"Nc1c(-c2ccccn2)nc2cc(F)ccn12 [Compound 3a, 7-Fluoro-2-(pyridin-2-yl)imidazo[1,2-a]pyridin-3-amine]",,,,15 ± 4.7 µM,"EC50 [1, 13]: < 10 µM; EC50 [1, 14]: 6.94 ± 0.11 µM; MRC5 TC50 ± Standard Deviation [5]: 64 µM"
"COc1ccn2c(Nc3ccccc3F)c(-c3cccc(C)n3)nc2c1 [Compound 3c, N-(2-Fluorophenyl)-7-methoxy-2-(6-methylpyridin-2-yl)imidazo[1,2-a]pyridin-3-amine]",,,,> 20 µM,"EC50 [1, 13]: > 20 µM; MRC5 TC50 ± Standard Deviation [5]: 64 µM"
"Fc1ccn2c(NC3CC3)c(-c3ccccn3)nc2c1 [Compound 3d, N-Cyclopropyl-7-fluoro-2-(pyridin-2-yl)imidazo[1,2-a]pyridin-3-amine]",,,,> 20 µM,"EC50 [1, 13]: > 20 µM; MRC5 TC50 ± Standard Deviation [5]: 64 µM"
"COc1ccn2c(Nc3ccccc3F)c(-c3cccnc3)nc2c1 [Compound 3g, N-(2-fluorophenyl)-7-methoxy-2-(pyridin-3-yl)imidazo[1,2-a]pyridin-3-amine]",,,,> 20 µM,MRC5 TC50 ± Standard Deviation [5]: 64 µM
"COc1ccn2c(NC(=O)c3ccccc3F)c(-c3ccccn3)nc2c1 [Compound 3h, 2-Fluoro-N-[7-methoxy-2-(pyridin-2-yl)imidazo[1,2-a]pyridin-3-yl]benzamide]",,,,> 20 µM,MRC5 TC50 ± Standard Deviation [5]: 64 µM
"COc1ccn2c(Nc3ccccc3F)c(-c3ncccn3)nc2c1 [Compound 3i, N-(2-Fluorophenyl)-7-methoxy-2-(pyrimidin-2-yl)imidazo[1,2-a]pyridin-3-amine]",,,,> 20 µM,MRC5 TC50 ± Standard Deviation [5]: 49 µM
COc1ccn2c(Nc3ccccc3F)c(-c3ccncn3)nc2c1 [Compound 3j],,,,> 20 µM,MRC5 TC50 ± Standard Deviation [5]: 46 µM
"COc1ccn2c(NC(=O)c3ccc(F)cn3)c(-c3ccccn3)nc2c1 [Compound 3k, 5-Fluoro-N-[7-methoxy-2-(pyridin-2-yl)imidazo[1,2-a]pyridin-3-yl]pyridine-2-carboxamide]",,,,> 20 µM,MRC5 TC50 ± Standard Deviation [5]: 64 µM
"COc1ccn2c(NC(=O)c3cccc(F)c3)c(-c3ccccn3)nc2c1 [Compound 3l, 3-Fluoro-N-[7-methoxy-2-(pyridin-2-yl)imidazo[1,2-a]pyridin-3-yl]benzamide]",,,,> 20 µM,MRC5 TC50 ± Standard Deviation [5]: 59 µM
"O=C(N[C@H](CO)c1ccccc1)c1cc(-c2c[nH]c3ncccc23)[nH]n1 [Compound S12, (S)-N-(2-Hydroxy-1-phenylethyl)-5-(1H-pyrrolo[2,3-b]pyridin-3-yl)-1H-pyrazole-3-carboxamide]",,,,> 20 µM,"EC50 [1, 13]: > 20 µM; EC50 [2, 14]: > 20 µM; MRC5 TC50 ± Standard Deviation ([5]; in µM): 42 ± 7.7; L6 TC50 ± Standard Deviation [6]: > 17; THP-1 TC50 ± Standard Deviation [7]: 42 ± 11"
"O=C(N[C@H](CO)c1ccccc1)c1ccc(-c2c[nH]c3ncccc23)nc1 [Compound S15, (S)-N-(2-Hydroxy-1-phenylethyl)-6-(1H-pyrrolo[2,3-b]pyridin-3-yl)nicotinamide]",,,,> 20 µM,"EC50 [1, 13]: > 20 µM; EC50 [2, 14]: > 20 µM; MRC5 TC50 ± Standard Deviation ([5]; in µM): > 50; L6 TC50 ± Standard Deviation [6]: > 50; THP-1 TC50 ± Standard Deviation [7]: 26 ± 2.0"
"O=C1OCc2ccc(Nc3nccc(Nc4cccc5c4C(=O)NC5)n3)cc21 [Compound S20, 7-((2-((3-oxo-1,3-dihydroisobenzofuran-5-yl)amino)pyrimidin-4-yl)amino)isoindolin-1-one]",,,,3.3 ± 1 µM,"EC50 [1, 13]: > 20 µM; EC50 [2, 14]: > 20 µM; MRC5 TC50 ± Standard Deviation ([5]; in µM): > 50; L6 TC50 ± Standard Deviation [6]: > 50; THP-1 TC50 ± Standard Deviation [7]: > 50"
CN(C)S(=O)(=O)c1ccc(N/N=C2\C(=O)Nc3ccccc32)cc1 [Compound S30],,,> 20 µM,,"EC50 [1, 13]: > 20 µM; EC50 [2, 14]: > 20 µM; MRC5 TC50 ± Standard Deviation ([5]; in µM): > 50; THP-1 TC50 ± Standard Deviation [7]: > 50"
